Our source for the degradation time values is US20230414826A1, “FIBRIN HYDROGELS” (Mayo Foundation for Medical Education and Research, priority 2020, published 2023).

For the experiment, the target named is T1, fibrin gels (Homo sapiens, UniProt P02671+P02675+P02679).
T1 sequence (P02671 20-644 isoform P02671-2 limits assumed): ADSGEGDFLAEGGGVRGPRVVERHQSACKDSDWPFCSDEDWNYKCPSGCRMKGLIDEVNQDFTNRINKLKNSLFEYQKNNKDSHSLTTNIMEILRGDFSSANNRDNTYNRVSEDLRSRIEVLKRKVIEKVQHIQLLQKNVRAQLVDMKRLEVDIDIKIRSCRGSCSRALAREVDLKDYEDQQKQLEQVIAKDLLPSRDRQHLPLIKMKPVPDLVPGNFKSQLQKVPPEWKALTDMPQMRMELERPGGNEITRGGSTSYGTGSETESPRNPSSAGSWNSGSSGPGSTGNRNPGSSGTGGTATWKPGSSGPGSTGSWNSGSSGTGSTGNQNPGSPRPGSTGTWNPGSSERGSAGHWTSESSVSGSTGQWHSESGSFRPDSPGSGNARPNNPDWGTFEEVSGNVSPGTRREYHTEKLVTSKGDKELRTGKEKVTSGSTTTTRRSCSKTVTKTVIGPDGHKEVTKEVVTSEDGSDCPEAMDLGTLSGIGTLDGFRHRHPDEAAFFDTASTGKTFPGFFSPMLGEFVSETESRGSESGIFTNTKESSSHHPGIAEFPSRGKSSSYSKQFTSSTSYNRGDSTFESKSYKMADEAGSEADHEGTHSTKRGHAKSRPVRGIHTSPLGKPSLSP
T1 sequence (P02675 45-491 limits assumed): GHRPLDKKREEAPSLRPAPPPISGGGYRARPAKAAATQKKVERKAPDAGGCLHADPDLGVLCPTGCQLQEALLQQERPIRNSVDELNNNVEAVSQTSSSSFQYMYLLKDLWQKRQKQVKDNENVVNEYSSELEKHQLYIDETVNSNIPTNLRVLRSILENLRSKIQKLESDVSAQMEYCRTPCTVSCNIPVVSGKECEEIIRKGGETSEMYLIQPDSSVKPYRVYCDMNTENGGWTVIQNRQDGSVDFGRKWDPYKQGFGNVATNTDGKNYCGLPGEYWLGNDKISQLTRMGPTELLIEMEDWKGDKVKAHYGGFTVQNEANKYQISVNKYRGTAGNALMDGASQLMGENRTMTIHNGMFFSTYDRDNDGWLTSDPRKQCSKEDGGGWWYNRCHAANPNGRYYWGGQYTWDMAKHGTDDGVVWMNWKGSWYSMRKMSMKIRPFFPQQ
T1 sequence (P02679 27-437 isoform P02679-2 limits assumed): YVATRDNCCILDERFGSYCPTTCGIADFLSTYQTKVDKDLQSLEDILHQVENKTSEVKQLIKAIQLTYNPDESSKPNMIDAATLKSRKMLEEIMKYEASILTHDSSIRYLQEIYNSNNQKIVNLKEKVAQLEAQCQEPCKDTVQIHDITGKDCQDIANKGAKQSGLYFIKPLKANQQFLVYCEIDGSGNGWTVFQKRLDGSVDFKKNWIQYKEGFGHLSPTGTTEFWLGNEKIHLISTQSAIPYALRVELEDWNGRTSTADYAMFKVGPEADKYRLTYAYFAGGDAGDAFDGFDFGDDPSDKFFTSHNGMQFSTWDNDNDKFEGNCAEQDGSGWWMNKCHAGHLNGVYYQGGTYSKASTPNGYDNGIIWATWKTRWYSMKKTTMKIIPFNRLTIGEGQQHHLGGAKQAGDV
Put plainly: Fibrin gel degradation with plasminogen and tissue plasminogen activator, thickness by OCT. The settings on record: 1.6 U/mL plasminogen and 17,000 U/mL tPA in PBS, 37° C., gels with 0.12% dye, n=3. The procedure:
Fibrin gels were cast as described in the Electron Microscopy section above and hydrated in PBS. A punch was used to generate 5.0 mm×1.5 mm gels. The measured thickness of all the gels was 309±69 μm.
The fibrin gels were then submerged in a PBS solution with 1.6 U/mL plasminogen (Sigma-Aldrich; St Louis, MO) and 17,000 U/mL tissue plasminogen activator (Sigma-Aldrich) in a glass-bottom petri dish (Mattek) and incubated at 37° C. to initiate degradation as described elsewhere (see, e.g., Gandhi et al., 2018 Acta Biomater., 67:134-46). Fibrin gel thickness was monitored over time by imaging with an Envisu R2110 (Leica; Wetzlar, Germany) optical coherence tomograph (OCT) and quantified using the caliper tool within the accompanying InVivoVue software (Leica). Gel thickness was continually measured every 10 minutes until no physical evidence of the insoluble gel remained. The thickness of a gel was measured at 3 different locations (left, middle, right) on each cross-section. The measure at each location was normalized to its initial value and then averaged.
Fibrin gels produced using PBS, TB, or EB with a geometry of 1.5 mm wide×5.0 mm long×0.2 mm thick were generated. Gels were hydrated in PBS prior to incubation in a solution of tissue plasminogen activator (tPA) and plasminogen (P) at 37° C. […]

`Cc1cc(-c2ccc(/N=N/c3ccc4c(S(=O)(=O)O)cc(S(=O)(=O)O)c(N)c4c3O)c(C)c2)ccc1/N=N/c1ccc2c(S(=O)(=O)O)cc(S(=O)(=O)O)c(N)c2c1O` [EB, Evans Blue] displayed a degradation time of 78 ± 37 min.
As to `Cc1cc(-c2ccc(/N=N/c3c(S(=O)(=O)O)cc4cc(S(=O)(=O)O)cc(N)c4c3O)c(C)c2)ccc1/N=N/c1c(S(=O)(=O)O)cc2cc(S(=O)(=O)O)cc(N)c2c1O` [TB, Trypan Blue], the degradation time turned out to be 33 ± 18 min.
